The source of these data is ChEMBL document CHEMBL4725412, “Augmenting the Activity of Macrolide Adjuvants against Acinetobacter baumannii” (2020).

Format in all cases: functional
The test system of experiment [1] is Acinetobacter baumannii. Briefly: Potentiation of clarithromycin-induced antibacterial activity against Acinetobacter baumannii AB5075 assessed as fold reduction in clarithromycin MIC at 30 uM by broth microdilution method (reference value: 512 ug/ml). For orientation: Broth dilution looks for growth in wells or tubes with falling amounts of substance.
In experiment [2] the test system is Acinetobacter baumannii. Briefly: Potentiation of clarithromycin-induced antibacterial activity against Acinetobacter baumannii AB5075 assessed as clarithromycin MIC at 10 uM by CLSI based microdilution method (reference value: […] ug/ml).
In experiment [3] the test system is Acinetobacter baumannii. Briefly: Potentiation of clarithromycin-induced antibacterial activity against Acinetobacter baumannii AB5075 assessed as clarithromycin MIC at 30 uM after 2 to 9 days by broth microdilution method (reference value: […] ug/ml). The following applies: time day 2-9.
Experiment [4] concerns Acinetobacter baumannii. Briefly: Potentiation of clarithromycin-induced antibacterial activity against Acinetobacter baumannii AB5075 assessed as assessed as fold reduction in clarithromycin MIC at 10 uM by CLSI based microdilution method.
Experiment [5] has as its system Acinetobacter baumannii. Briefly: Potentiation of clarithromycin-induced antibacterial activity against Acinetobacter baumannii AB5075 assessed as clarithromycin MIC at 30 uM by CLSI based microdilution method (reference value: […] ug/ml).
Experiment [6] concerns Acinetobacter baumannii. Briefly: Antibacterial activity against Acinetobacter baumannii AB5075 assessed as reduction in microbial growth by CLSI based microdilution method.
Experiment [7] relates to Acinetobacter baumannii. Briefly: Potentiation of clarithromycin-induced antibacterial activity against Acinetobacter baumannii AB5075 assessed as fold reduction in clarithromycin MIC at 30 uM after 2 to 9 days by broth microdilution method. The following applies: time day 2-9.
Experiment [8] relates to Acinetobacter baumannii. Briefly: Antibacterial activity against Acinetobacter baumannii AB5075 assessed as reduction in microbial growth after 2 days by broth microdilution method. To be noted: AB5075, 48 h, time 2 day.
Experiment [9] has as its system Acinetobacter baumannii. Briefly: Antibacterial activity against Acinetobacter baumannii AB5075 assessed as reduction in microbial growth after 9 days by broth microdilution method. To be noted: AB5075, 216 h, time 9 day.
For experiment [10], the system named is Acinetobacter baumannii. As to the kind of experiment: Antibacterial activity against Acinetobacter baumannii AB5075 assessed as reduction in microbial growth after 6 days by broth microdilution method. The following applies: AB5075, 144 h, time 6 day.
The test system of experiment [11] is Acinetobacter baumannii. As to the kind of experiment: Potentiation of clarithromycin-induced antibacterial activity against Acinetobacter baumannii AB5075 assessed as fold reduction in clarithromycin MIC at 5 uM incubated for 16 hrs in presence of clarithromycin by broth microdilution method.
For experiment [12], the system named is Acinetobacter baumannii. Briefly: Potentiation of clarithromycin-induced antibacterial activity against Acinetobacter baumannii 4026 assessed as fold reduction in clarithromycin MIC at 10 uM incubated for 16 hrs by broth microdilution method.
The subject of experiment [13] is Acinetobacter baumannii. Briefly: Potentiation of clarithromycin-induced antibacterial activity against Acinetobacter baumannii 3927 assessed as fold reduction in clarithromycin MIC at 10 uM incubated for 16 hrs by broth microdilution method.
In experiment [14] the test system is Acinetobacter baumannii. Briefly: Potentiation of clarithromycin-induced antibacterial activity against Acinetobacter baumannii 4490 assessed as fold reduction in clarithromycin MIC at 10 uM incubated for 16 hrs by broth microdilution method.
Experiment [15] relates to Acinetobacter baumannii. As to the kind of experiment: Potentiation of clarithromycin-induced antibacterial activity against Acinetobacter baumannii 5001 assessed as fold reduction in clarithromycin MIC at 10 uM incubated for 16 hrs by broth microdilution method.
The test system of experiment [16] is Acinetobacter baumannii. Briefly: Potentiation of clarithromycin-induced antibacterial activity against Acinetobacter baumannii 5256 assessed as fold reduction in clarithromycin MIC at 10 uM incubated for 16 hrs by broth microdilution method.
For experiment [17], the system named is Acinetobacter baumannii. Briefly: Potentiation of clarithromycin-induced antibacterial activity against Acinetobacter baumannii AB5075 assessed as fold reduction in clarithromycin MIC at 10 uM incubated for 16 hrs in presence of clarithromycin by broth microdilution method.
Experiment [18] concerns Acinetobacter baumannii. As to the kind of experiment: Potentiation of clarithromycin-induced antibacterial activity against Acinetobacter baumannii 4052 assessed as fold reduction in clarithromycin MIC at 10 uM incubated for 16 hrs by broth microdilution method.
The test system of experiment [19] is Acinetobacter baumannii. As to the kind of experiment: Potentiation of clarithromycin-induced antibacterial activity against Acinetobacter baumannii 4498 assessed as fold reduction in clarithromycin MIC at 10 uM incubated for 16 hrs by broth microdilution metho.
Experiment [20] deals with Acinetobacter baumannii. As to the kind of experiment: Potentiation of clarithromycin-induced antibacterial activity against Acinetobacter baumannii 5197 assessed as fold reduction in clarithromycin MIC at 10 uM incubated for 16 hrs by broth microdilution method.
Experiment [21] relates to Acinetobacter baumannii. As to the kind of experiment: Potentiation of clarithromycin-induced antibacterial activity against Acinetobacter baumannii 5711 assessed as fold reduction in clarithromycin MIC at 10 uM incubated for 16 hrs by broth microdilution method.
Experiment [22] concerns Acinetobacter baumannii. Briefly: Potentiation of clarithromycin-induced antibacterial activity against Acinetobacter baumannii 4878 assessed as fold reduction in clarithromycin MIC at 10 uM incubated for 16 hrs by broth microdilution method.
Experiment [23] has as its system Acinetobacter baumannii. Briefly: Potentiation of clarithromycin-induced antibacterial activity against Acinetobacter baumannii 4027 assessed as fold reduction in clarithromycin MIC at 10 uM incubated for 16 hrs by broth microdilution method.
Experiment [24] deals with Acinetobacter baumannii. As to the kind of experiment: Potentiation of clarithromycin-induced antibacterial activity against Acinetobacter baumannii 8967 assessed as fold reduction in clarithromycin MIC at 10 uM incubated for 16 hrs by broth microdilution method.
Experiment [25] concerns Acinetobacter baumannii. Briefly: Potentiation of clarithromycin-induced antibacterial activity against Acinetobacter baumannii 4857 assessed as fold reduction in clarithromycin MIC at 10 uM incubated for 16 hrs by broth microdilution method.
In experiment [26] the test system is Acinetobacter baumannii. Briefly: Potentiation of clarithromycin-induced antibacterial activity against Acinetobacter baumannii 4795 assessed as fold reduction in clarithromycin MIC at 10 uM incubated for 16 hrs by broth microdilution method.
Experiment [27] deals with Acinetobacter baumannii. Briefly: Potentiation of clarithromycin-induced antibacterial activity against Acinetobacter baumannii 3785 assessed as fold reduction in clarithromycin MIC at 10 uM incubated for 16 hrs by broth microdilution method.
Experiment [28] has as its system Acinetobacter baumannii. As to the kind of experiment: Antibacterial activity against Acinetobacter baumannii AB5075 assessed as reduction in microbial growth incubated for 16 hrs by broth microdilution method.
Experiment [29] relates to Acinetobacter baumannii. Briefly: Potentiation of clarithromycin-induced antibacterial activity against Acinetobacter baumannii AB5075 assessed as clarithromycin MIC at 10 uM incubated for 16 hrs by broth microdilution method (reference value: […] ug/ml).
The test system of experiment [30] is Acinetobacter baumannii. Briefly: Potentiation of clarithromycin-induced antibacterial activity against Acinetobacter baumannii 4448 assessed as fold reduction in clarithromycin MIC at 10 uM incubated for 16 hrs by broth microdilution method.
Experiment [31] relates to Acinetobacter baumannii. Briefly: Potentiation of clarithromycin-induced antibacterial activity against Acinetobacter baumannii 4025 assessed as fold reduction in clarithromycin MIC at 10 uM incubated for 16 hrs by broth microdilution method.
Experiment [32] deals with Acinetobacter baumannii. Briefly: Potentiation of clarithromycin-induced antibacterial activity against Acinetobacter baumannii AB5075 assessed as fold reduction in clarithromycin MIC at 7.5 uM incubated for 16 hrs in presence of clarithromycin broth microdilution method.
Experiment [33] relates to Acinetobacter baumannii. Briefly: Potentiation of clarithromycin-induced antibacterial activity against Acinetobacter baumannii AB5075 assessed as fold reduction in clarithromycin MIC at 30 uM incubated for 16 hrs in presence of clarithromycin by broth microdilution method.
The subject of experiment [34] is Acinetobacter baumannii. As to the kind of experiment: Potentiation of clarithromycin-induced antibacterial activity against Acinetobacter baumannii 4269 assessed as fold reduction in clarithromycin MIC at 10 uM incubated for 16 hrs by broth microdilution method.
For experiment [35], the system named is Acinetobacter baumannii. As to the kind of experiment: Potentiation of clarithromycin-induced antibacterial activity against Acinetobacter baumannii AB5075 assessed as clarithromycin MIC at […] incubated for 16 hrs by broth microdilution method (reference value: […] ug/ml). To be noted: dose 30 µM.
Experiment [36] relates to Acinetobacter baumannii. As to the kind of experiment: Potentiation of clarithromycin-induced antibacterial activity against Acinetobacter baumannii 4991 assessed as fold reduction in clarithromycin MIC at 10 uM incubated for 16 hrs by broth microdilution method.
The subject of experiment [37] is Acinetobacter baumannii. As to the kind of experiment: Potentiation of clarithromycin-induced antibacterial activity against Acinetobacter baumannii 4456 assessed as fold reduction in clarithromycin MIC at 10 uM incubated for 16 hrs by broth microdilution method.
In experiment [38] the test system is Acinetobacter baumannii. Briefly: Potentiation of clarithromycin-induced antibacterial activity against Acinetobacter baumannii 3560 assessed as fold reduction in clarithromycin MIC at 10 uM incubated for 16 hrs by broth microdilution method.
Experiment [39] concerns Acinetobacter baumannii. Briefly: Potentiation of clarithromycin-induced antibacterial activity against Acinetobacter baumannii 4957 assessed as fold reduction in clarithromycin MIC at 10 uM incubated for 16 hrs by broth microdilution method.
Experiment [40] has as its system Acinetobacter baumannii. Briefly: Potentiation of clarithromycin-induced antibacterial activity against Acinetobacter baumannii AB5075 assessed as clarithromycin MIC at 20 uM incubated for 16 hrs by broth microdilution method (reference value: […] ug/ml).
Experiment [41] relates to Acinetobacter baumannii. As to the kind of experiment: Potentiation of clarithromycin-induced antibacterial activity against Acinetobacter baumannii AB5075 assessed as fold reduction in clarithromycin MIC at 20 uM incubated for 16 hrs in presence of clarithromycin by broth microdilution method.
Experiment [42] has as its system Acinetobacter baumannii. As to the kind of experiment: Potentiation of clarithromycin-induced antibacterial activity against Acinetobacter baumannii AB5075 assessed as clarithromycin MIC at 5 uM incubated for 16 hrs by broth microdilution method (reference value: […] ug/ml).
The subject of experiment [43] is Acinetobacter baumannii. Briefly: Potentiation of clarithromycin-induced antibacterial activity against Acinetobacter baumannii 3806 assessed as fold reduction in clarithromycin MIC at 10 uM incubated for 16 hrs by broth microdilution method.
The test system of experiment [44] is Acinetobacter baumannii. As to the kind of experiment: Potentiation of clarithromycin-induced antibacterial activity against Acinetobacter baumannii AB5075 assessed as clarithromycin MIC at 7.5 uM incubated for 16 hrs by broth microdilution method (reference value: […] ug/ml).
Experiment [45] relates to Acinetobacter baumannii. Briefly: Potentiation of clarithromycin-induced antibacterial activity against Acinetobacter baumannii AB5075 assessed as assessed as fold reduction in clarithromycin MIC at 30 uM by CLSI based microdilution method.

Broadly, the MIC is the lowest concentration found to suppress growth. With `Cl.Nc1nc(-c2ccc(NC(=O)c3cc(Cl)cc(Cl)c3)cc2)c[nH]1`, the MIC in the experiment with Acinetobacter baumannii [1] came to 2 µg/mL; in the experiment on Acinetobacter baumannii [2], 2 µg/mL; in the experiment on Acinetobacter baumannii [3], 0.25 µg/mL; with Acinetobacter baumannii [5], 0.25 µg/mL; in the experiment on Acinetobacter baumannii [6] it was 100 µM. Further, the “fold change (FC)” value in the experiment on Acinetobacter baumannii [4] worked out at 16; with Acinetobacter baumannii [7], 128.
Take `CC[C@H]1OC(=O)[C@H](C)[C@@H](O[C@H]2C[C@@](C)(OC)[C@@H](O)[C@H](C)O2)[C@H](C)[C@@H](O[C@@H]2O[C@H](C)C[C@H](N(C)C)[C@H]2O)[C@](C)(OC)C[C@@H](C)C(=O)[C@H](C)[C@@H](O)[C@]1(C)O` [CLARITHROMYCIN]: the results for the MIC in the experiment on Acinetobacter baumannii [8], with Acinetobacter baumannii [9] and with Acinetobacter baumannii [10] were no less than 128 µg/mL, 512 µg/mL and 512 µg/mL, respectively.
Take `Cl.Nc1nc(-c2ccc(NC(=O)c3ccc(Cl)c(Cl)c3)cc2F)c[nH]1`: the “fold change (FC)” value was 4 in the experiment with Acinetobacter baumannii [11]; 8 in the experiment on Acinetobacter baumannii [12]; 8 with Acinetobacter baumannii [13]; 8 with Acinetobacter baumannii [14]; 8 with Acinetobacter baumannii [15]; 8 in the experiment with Acinetobacter baumannii [16]. The “fold change (FC)” value is on record as 64 with Acinetobacter baumannii [17]; 8 with Acinetobacter baumannii [18]; 8 in the experiment on Acinetobacter baumannii [19]; 8 in the experiment with Acinetobacter baumannii [20]; 8 with Acinetobacter baumannii [21]; 8 in the experiment with Acinetobacter baumannii [22]. The “fold change (FC)” value in the experiment on Acinetobacter baumannii [23], in the experiment with Acinetobacter baumannii [24], in the experiment on Acinetobacter baumannii [25], with Acinetobacter baumannii [26], in the experiment on Acinetobacter baumannii [27] and in the experiment on Acinetobacter baumannii [30] was 8 in each case. Moreover, the “fold change (FC)” value is reported as 8 in the experiment with Acinetobacter baumannii [31]; 32 in the experiment on Acinetobacter baumannii [32]; 64 in the experiment with Acinetobacter baumannii [33]; 8 with Acinetobacter baumannii [34]; 8 in the experiment with Acinetobacter baumannii [36]; 8 in the experiment with Acinetobacter baumannii [37]. The “fold change (FC)” value with Acinetobacter baumannii [38] worked out at 8; in the experiment with Acinetobacter baumannii [39], 8; with Acinetobacter baumannii [41], 64; in the experiment with Acinetobacter baumannii [43], 8. Also, the MIC is greater than 200 µM in the experiment with Acinetobacter baumannii [28]; 0.5 µg/mL with Acinetobacter baumannii [29]; 0.5 µg/mL in the experiment on Acinetobacter baumannii [35]; 0.5 µg/mL with Acinetobacter baumannii [40]; 8 µg/mL in the experiment on Acinetobacter baumannii [42]; 1 µg/mL in the experiment with Acinetobacter baumannii [44].
For the compound `Nc1ncc(-c2ccc(NC(=O)c3cc(Br)cc(Br)c3)cc2)[nH]1`, the entries for the “fold change (FC)” value in the experiment with Acinetobacter baumannii [45] and with Acinetobacter baumannii [4] were 128 and 16, respectively. Further, the MIC worked out at 2 µg/mL with Acinetobacter baumannii [2], 0.25 µg/mL with Acinetobacter baumannii [5] and 100 µM with Acinetobacter baumannii [6].
